Laboratory results as given in patent US20170320837A1, “METHOD FOR TREATING INFLAMMATORY DISORDERS” (Synta Pharmaceuticals Corp., priority 2006, published 2017).
“Also recorded” adds a separate entry of the source.

Tests used:
glucocorticoid receptor [1] = assay: Glucocorticoid receptor levels in human PBMCs, renal cells and cancer cell lines, immunoblot (Example 115); type: cell-based
Description: Normal human renal proximal tubule epithelial cells and tumor cell lines of MV-4-11, Kasumi-1, and Hela were obtained from Cambrex Bioproducts and American Type Culture Collection, respectively. Cells were cultured with 10% fetal bovine serum/DMEM.
The whole blood samples from healthy human volunteer were collected and the PBMCs were isolated immediately as described in Example 116. Isolated human PBMCs were cultured in 10% fetal bovine serum/DMEM.
Human PBMCs, kasumi-1, My-4-11, Hela, and human renal proximal tubule epithelial cells were treated with DMSO (control), Compound 226, Compound 287, 17-DMAG at concentrations of 0, 5, 25, or 100 nM (in DMSO) for 16 hours. The cells were then collected and rinsed in ice-cold PBS and stored in liquid nitrogen until further analysis.
(§1) PBMC, renal and tumor cell pellets were prepared in Western lysis buffer (10 mmol/L HEPES, 42 mmol/L KCl, 5 mmol/L MgCl2, 0.1 mmol/L EDTA, 0.1. mmol/LEGTA, 1 mmol/L DTT, 1% Triton X-100, freshly supplemented with 1× protease inhibitor cocktail from Pierce, Rockford, Ill.). Lysate protein concentrations were quantified by bicinchoninic acid assay (Pierce) and normalized. Equal amounts of protein were loaded onto 10% NuPAGE Bis-Tris Gels (Invitrogen) and subsequently transferred onto polyvinylidene difluoride membranes. The membranes were blocked in 5% milk in TBST. Primary antibody of glucocorticoid receptor from Santa Cruz Biotechnology, Inc. was added and incubated at room temperature for 1 hour with shaking. The blots were washed extensively in TBST before secondary antibodies were added for overnight incubation at 4° C. with gentle shaking. The blots were again washed extensively and developed with SuperSignal West Femto substrate (Pierce).

glucocorticoid receptor [2] = assay: Glucocorticoid receptor levels in rat PBMCs, immunoblot; type: cell-based; conditions: rat PBMCs, 0, 1, 5, 25, or 100 nM, 16 hours
Description: (§2) The whole blood samples from healthy human volunteer and male SD rat were collected and the PBMCs were isolated immediately as follows. 5 ml of whole blood was diluted with an equal volume of sterile 1× PBS. The diluted blood was overlayed carefully into a sterile centrifuge tube without disturbing the bottom layer that containing 5 ml of Ficoll-paque plus density gradient solution. The layered blood was centrifuged at 1500×g for 30 minutes at room temperature. The middle thin layer containing PBMCs was carefully removed, transferred to another sterile centrifuge tube, and washed twice with PBS to remove […]. Isolated rat and human PBMCs were cultured in 10% fetal bovine serum/DMEM.
(§3) The rat and human PBMCs were treated with DMSO (control), Compound 226, Compound 287, or 17-DMAG at concentrations of 0, 1, 5, 25, or 100 nM (in DMSO) for 16 hours. The cells were then collected and rinsed in ice-cold PBS and stored in liquid nitrogen until further analysis.
as §1, with “PBMC” for “PBMC, renal and tumor cell pellets”, “0.1 mmol/L EGTA,” for “0.1. mmol/LEGTA,”, “glucocorticod” for “glucocorticoid”, “(Pierce). The immunoblot analysis was performed to measure the level of total GRs by Quantity One software from Bio-Rad.” for “(Pierce).”

glucocorticoid receptor [3] = assay: Glucocorticoid receptor levels in PBMCs of rats after four days of intravenous dosing, immunoblot; type: in vivo, Sprague-Dawley (SD) rats; conditions: daily intravenously for four days, 17-DMAG 6 mg/kg, Paclitaxel 5 mg/kg, Compound 264 80 mg/kg, Compound 226 50 mg/kg
Description: The test compounds were administered daily intravenously via tail vein for four days. […] All rats were sacrificed at the study day 5. About 1-2 mL of blood samples were collected per animal. The blood samples were then pulled together as a group for PBMC isolation.

glucocorticoid receptor [4] = assay: Glucocorticoid receptor levels in human PBMCs, immunoblot (Example 114); type: cell-based; conditions: human PBMCs, 0, 1, 5, 25, or 100 nM, 16 hours
Description: as §2, §3
as §1, with “PBMC” for “PBMC, renal and tumor cell pellets”, “0.1 mmol/L EGTA,” for “0.1. mmol/LEGTA,”, “glucocorticod” for “glucocorticoid”, “(Pierce). The immunoblot analysis was performed to measure the level of total GRs by Quantity One software from Bio-Rad.” for “(Pierce).”

Her2 = assay: Degradation of Her2 in BT-474 cells, immunoblot (Method 1); type: cell-based, Human; conditions: overnight
Description: Human high-Her2 breast carcinoma BT474 (HTB-20), SK-BR-3 (HTB-30) and MCF-7 breast carcinoma (HTB-22) from American Type Culture Collection, VA, USA were grown in Dulbecco's modified Eagle's medium with 4 mM L-glutamine and antibiotics (100 IU/ml penicillin and 100 ug/ml streptomycine; GibcoBRL). To obtain exponential cell growth, cells were trypsinized, counted and seeded at a cell density of 0.5×10^6 cells/ml regularly, every 3 days. All experiments were performed on day 1 after cell passage. • B. Degradation of Her2 in Cells After Treatment with a Compound of the Invention • 1. Method 1
BT-474 cells were treated with 0.5 μM, 2 μM, or 5 μM of 17AAG (a positive control) or 0.5 μM, 2 μM, or 5 μM of Compound 108 or Compound 49 overnight in DMEM medium. After treatment, each cytoplasmic sample was prepared from 1×10^6 cells by incubation of cell lysis buffer (#9803, cell Signaling Technology) on ice for 10 minutes. The resulting supernatant used as the cytosol fractions were dissolved with sample buffer for SDS-PAGE and run on a SDS-PAGE gel, blotted onto a nitrocellulose membrane by using semi-dry transfer. Non-specific binding to nitrocellulose was blocked with 5% skim milk in TBS with 0.5% Tween at room temperature for 1 hour, then probed with anti-Her2/ErB2 mAb (rabbit IgG, #2242, Cell Signaling) and anti-Tubulin (T9026, Sigma) as housekeeping control protein. HRP-conjugated goat anti-rabbit IgG (H+L) and HRP-conjugated horse anti-mouse IgG (H+L) were used as secondary Ab (#7074, #7076, Cell Signaling) and LumiGLO reagent, 20× Peroxide (#7003, Cell Signaling) was used for visualization.

Hsp90 protein = assay: Malachite Green Assay of ATPase activity of Hsp90 protein; type: biochemical
Description: Hsp90 protein was obtained from Stressgen (Cat #SPP-770). Assay buffer: 100 mM Tris-HCl, Ph 7.4, 20 mM KCl, 6 mM MgCl2. […] Malachite green reagent was added to the reaction. […] The plate was read by an ELISA reader with an absorbance at 620 nm.

GR (human recombinant) = target: T1, GR (human recombinant) (Homo sapiens, UniProt P04150); assay: GR competitive assay, fluorescence polarization with Fluormone GS1; type: binding; conditions: tested up to 10 uM
T1 construct: purchased Invitrogen P2816
T1 sequence (P04150 1-777): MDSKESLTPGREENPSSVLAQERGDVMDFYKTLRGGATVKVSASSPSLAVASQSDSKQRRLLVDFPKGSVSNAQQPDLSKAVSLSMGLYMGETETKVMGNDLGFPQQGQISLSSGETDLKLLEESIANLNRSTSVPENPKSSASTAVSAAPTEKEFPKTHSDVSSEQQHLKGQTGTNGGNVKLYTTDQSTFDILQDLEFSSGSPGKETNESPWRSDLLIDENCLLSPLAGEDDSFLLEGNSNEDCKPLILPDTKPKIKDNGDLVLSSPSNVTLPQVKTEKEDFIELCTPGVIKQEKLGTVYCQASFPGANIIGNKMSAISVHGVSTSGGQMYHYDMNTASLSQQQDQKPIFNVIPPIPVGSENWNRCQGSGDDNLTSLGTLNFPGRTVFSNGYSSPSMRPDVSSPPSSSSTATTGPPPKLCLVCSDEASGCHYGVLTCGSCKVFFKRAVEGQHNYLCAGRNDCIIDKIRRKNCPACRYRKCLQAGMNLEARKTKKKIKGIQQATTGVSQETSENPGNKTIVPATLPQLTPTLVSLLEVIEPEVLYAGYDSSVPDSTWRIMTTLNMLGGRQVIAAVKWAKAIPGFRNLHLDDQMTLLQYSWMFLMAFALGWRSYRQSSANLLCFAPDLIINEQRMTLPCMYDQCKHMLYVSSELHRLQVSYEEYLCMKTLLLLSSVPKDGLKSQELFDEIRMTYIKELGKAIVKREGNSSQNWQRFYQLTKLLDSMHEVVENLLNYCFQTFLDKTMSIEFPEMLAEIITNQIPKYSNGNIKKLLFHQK
Description: To determine whether the compounds of the invention bind directly to the glucocorticoid receptor, GR competitive assay was performed using a kit from Invitrogen (Cat #P2816). GR (human recombinant) was added to a fluorescent glucocorticoid (Fluormone™ GS1) ligand with a test compound at various concentrations (a serial dilution of the test compound was done on a 96-well plate) and incubated for 2-4 hours in the dark. […] The shift in polarization value in the presence of a test compound was used to determine relative affinity of test compounds for glucocorticoid receptors. The buffer plus Fluormone™ GS1 and glucocorticoid receptor in the absent of s test compound was used as negative control presenting 0% competition. […] The IC50 was calculated based on the inhibition rate of binding activity of the testing compound.

glucocorticoid receptors = target: T2, glucocorticoid receptors (Homo sapiens, UniProt P04150); assay: Competitive binding assay with tritium labeled dexamethason in Hela S3 cells (legend of FIG. 3)
T2 construct: endogenous in cells; host or cells: HeLa S3
T2 sequence (P04150 1-777): T1 sequence (P04150 1-777)

[5] = Kasumi-1 AML cancer cells, 0, 5, 25, or 100 nM, 16 hrs
[6] = MV-4-11 AML cancer cells, 0, 5, 25, or 100 nM, 16 hrs
[7] = cancer cells as well as normal PBMCs and renal cells
[8] = human PBMCs, 0, 5, 25, or 100 nM, 16 hrs
[9] = human renal cells, 0, 5, 25, or 100 nM, 16 hrs

Structure (SMILES): CO[C@H]1/C=C\C=C(/C)C(=O)NC2=CC(=O)C(NCCN(C)C)=C(C[C@@H](C)C[C@H](OC)[C@H](O)[C@@H](C)/C=C(\C)[C@@H]1OC(N)=O)C2=O [Compound 17-DMAG, 17-DMAG, reference compound]
- suppression of glucocorticoid receptors, cancer cells compared with normal cells (glucocorticoid receptor [1]): more pronounced in cancer cell than in normal cells
- expression of glucocorticoid receptors (glucocorticoid receptor [1]; HeLa cells, 0, 5, 25, or 100 nM, 16 hrs): dose dependent decrease
- expression of glucocorticoid receptors (glucocorticoid receptor [1]; [5]): dose dependent decrease
- expression of glucocorticoid receptors (glucocorticoid receptor [1]; [6]): dose dependent decrease
- expression of glucocorticoid receptors (glucocorticoid receptor [1]; [7]): suppress the expression of glucocorticoid receptors
- expression of glucocorticoid receptors (glucocorticoid receptor [1]; [8]): dose dependent decrease
- expression of glucocorticoid receptors (glucocorticoid receptor [1]; [9]): dose dependent decrease
- expression of glucocorticoid receptors (glucocorticoid receptor [2]): dose dependent decrease; also recorded: decreased the expression of glucocorticoid receptor in a dose dependent manner
- expression of glucocorticoid receptor (GR) in isolated PBMC compared with vehicle (glucocorticoid receptor [3]): decreased
- expression of glucocorticoid receptors (glucocorticoid receptor [4]): dose dependent decrease; also recorded: decreased the expression of glucocorticoid receptor in a dose dependent manner

Structure (SMILES): CCc1cc(-c2nnc(S)n2-c2cccc3ccccc23)c(O)cc1O [Compound 49, 3-(2,4-Dihydroxy-5-ethyl-phenyl)-4-(naphthalen-1-yl)-5-mercapto-triazole]
- degradation of Her2 (Her2; 0.5 μM): partial degradated
- degradation of Her2 (Her2; 2 μM): complete degradation
- degradation of Her2 (Her2; 5 μM): complete degradation

Structure (SMILES): Oc1ccc(-c2nnc(S)n2-c2cccc3ccccc23)c(O)c1 [Compound 108, 3-(2,4-Dihydroxy-phenyl)-4-(naphthalen-1-yl)-5-mercapto-triazole]
- degradation of Her2 (Her2; 0.5 μM): partially degradated
- degradation of Her2 (Her2; 2 μM): partially degradated
- degradation of Her2 (Her2; 5 μM): almost completely degraded
- ATPase activity of Hsp90 (Hsp90 protein; 4 μM): significant inhibition
- ATPase activity of Hsp90 (Hsp90 protein; 40 μM): even greater inhibition of ATPase activity of Hsp90 than geldanamycin

Structure (SMILES): CCCN(C)c1cc(-n2c(S)nnc2-c2cc(C(C)C)c(O)cc2O)ccc1OC [Compound 264]
- IC50 (GR (human recombinant)): > 10 µM
- expression of glucocorticoid receptor (GR) in isolated PBMC compared with vehicle (glucocorticoid receptor [3]): decreased

Structure (SMILES): CC(C)c1cc(-c2nnc(O)n2-c2ccc(N(C)CCN(C)C)cc2)c(O)cc1O [Compound 287]
- suppression of glucocorticoid receptors, cancer cells compared with normal cells (glucocorticoid receptor [1]): more pronounced in cancer cell than in normal cells
- expression of glucocorticoid receptors (glucocorticoid receptor [1]; [5]): dose dependent decrease
- expression of glucocorticoid receptors (glucocorticoid receptor [1]; [6]): dose dependent decrease
- expression of glucocorticoid receptors (glucocorticoid receptor [1]; [7]): suppress the expression of glucocorticoid receptors
- expression of glucocorticoid receptors (glucocorticoid receptor [1]; [8]): dose dependent decrease
- expression of glucocorticoid receptors (glucocorticoid receptor [1]; [9]): dose dependent decrease
- expression of glucocorticoid receptors (glucocorticoid receptor [2]): dose dependent decrease; also recorded: decreased the expression of glucocorticoid receptor in a dose dependent manner
- expression of glucocorticoid receptors (glucocorticoid receptor [4]): dose dependent decrease; also recorded: decreased the expression of glucocorticoid receptor in a dose dependent manner

Structure (SMILES): CC(=O)O[C@H]1C(=O)[C@@]2(C)[C@H]([C@H](OC(=O)c3ccccc3)[C@]3(O)C[C@H](OC(=O)[C@H](O)[C@@H](NC(=O)c4ccccc4)c4ccccc4)C(C)=C1C3(C)C)[C@]1(OC(C)=O)CO[C@@H]1C[C@@H]2O [Paclitaxel, reference compound]
- displacement of tritium labeled dexamethason (glucocorticoid receptors): did not displace the tritium labeled dexamethason
- expression of glucocorticoid receptor (GR) in isolated PBMC compared with vehicle (glucocorticoid receptor [3]): decreased

Structure (SMILES): C[C@@H]1C[C@H]2O[C@@H]2/C=C\C=C\C(=O)Cc2c(Cl)c(O)cc(O)c2C(=O)O1 [radicicol]
- displacement of tritium labeled dexamethason (glucocorticoid receptors): did not displace the tritium labeled dexamethason
